The assay has as its system C. elegans VP596 gst-4::GFP/RFP ratio, acrylamide, 24 h. Briefly: analog inhibition of acrylamide-induced gst-4::GFP reporter, SAR follow-up, SKN-1 inhibitor project, whole organism, GFP/RFP fluorescence ratio, strain VP596 (AID 652140).

Molecules are shown by their SMILES. Activity calls are given as the source filed them.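 The calls were made as follows: active = compounds whose IC50 against the worm SKN-1 reporter ratio signal is 5 µM or lower; inactive = the rest.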

For orientation: IC50 means the point on the concentration scale where inhibition reaches its midpoint. For `Clc1ccc(-c2csc(-c3ccncc3)n2)cc1`, the half-inhibitory concentration (IC50) is 1.1 µM.
As for `c1ccc(-c2csc(-c3ccncc3)n2)cc1`, the figure is 2.58 µM; as for `Cc1ccc(-c2csc(-c3cccnc3)n2)cc1`, 30 µM (inactive); as for `CCOc1cc(CNC2CCCC2)cc(Cl)c1OC`, > 64 µM (inactive).
As for `CCOc1cc(CNC2CCCC2)cc(Cl)c1OCc1ccc(F)cc1`, the figure is 1.04 µM; as for `COc1cc(CNC2CCCC2)cc(Cl)c1OCc1ccc(F)cc1`, 0.826 µM.
The figure for `COc1ccc(-c2csc(-c3ccncc3)n2)cc1` is 18 µM (inactive); for `CCOc1cc(CNC2CCCC2)cc(Cl)c1OCc1ccc(C)cc1` it is 25.8 µM (inactive); for `CCOc1cc(CNC2CCCCC2)cc(Cl)c1OCc1ccc(F)cc1` it is 9.66 µM (inactive).
For the compound `Clc1ccc(-c2csc(-c3cccnc3)n2)cc1`, the 50% inhibitory concentration (IC50) was 1.51 µM.
`CCOc1cc(CNCc2ccccc2)cc(Cl)c1OCc1ccc(F)cc1`: the IC50 was 17.4 µM (inactive).
As for `Cc1ccc(-c2csc(-c3ccncc3)n2)cc1`, the figure is 17.7 µM (inactive); as for `CCOc1cc(CNC(C)C)cc(Cl)c1OCc1ccc(F)cc1`, 16.7 µM (inactive).
With `CCOc1cc(CNC2CCCC2)cc(Cl)c1OCc1ccc(OC)cc1`, the IC50 was > 64 µM (inactive).
As for `CCOc1cc(C(=O)NC2CCCC2)cc(Cl)c1OCc1ccc(F)cc1`, the figure is > 64 µM (inactive); as for `CCOc1cc(CNC2CCCC2)ccc1OCc1ccc(F)cc1`, 10.3 µM (inactive); as for `CCOc1cc(CNc2ccccc2)cc(Cl)c1OCc1ccc(F)cc1`, > 64 µM (inactive).
The figure for `c1ccc(-c2csc(-c3cccnc3)n2)cc1` is 19.6 µM (inactive).
As for `Fc1ccc(-c2csc(-c3cccnc3)n2)cc1`, the figure is 6.09 µM (inactive); as for `CCOc1cc(CNC2CCC2)cc(Cl)c1OCc1ccc(F)cc1`, 8.68 µM (inactive); as for `Fc1ccc(COc2ccc(CNC3CCCC3)cc2Cl)cc1`, 4.18 µM.
`COc1ccc(-c2csc(-c3cccnc3)n2)cc1`: the IC50 is > 64 µM (inactive).
The figure for `CCOc1cc(CNC2CCCC2)cc(Cl)c1OCc1ccccc1Cl` is 12 µM (inactive); for `Fc1ccc(-c2csc(-c3ccncc3)n2)cc1` it is 2.03 µM; for `CCOc1cc(CNC2CCCC2)cc(Cl)c1OCc1ccccc1F` it is 0.767 µM.
The figure for `CCOc1cc(CNC2CC2)cc(Cl)c1OCc1ccc(F)cc1` is 1.96 µM; for `CCOc1cc(CNC2CCCC2)cc(Cl)c1OCc1cccc(F)c1` it is 7.17 µM (inactive).
The figure for `CCOc1cc(CNC2CCCC2)cc(Cl)c1OCc1ccc(Cl)cc1` is 0.244 µM.
